From US8415272B2, “Quinoline derivatives and their use as fungicides” (Syngenta Crop Protection LLC, priority 2008, dated 2013)

How the values were obtained:
Phytophthora infestans = assay: whole plant or invertebrate; assay type: in vivo; settings: in Solanum lycopersicum, foliar, 96 h, read-out: control of fungal infection, Phytophthora infestans
Plasmopara viticola = assay: Leaf disk assay, Plasmopara viticola (downy mildew of grapevine), preventive; assay type: in vivo; settings: foliar, 168 h, grapevine leaf disks, assessed seven days after inoculation, read-out: control of fungal infection, Plasmopara viticola
[1] = test system: Erysiphe graminis f.sp. tritici; assay: Leaf disk assay, Erysiphe graminis f.sp. tritici (wheat powdery mildew), preventive; assay type: in vivo; settings: Blumeria graminis, foliar, 96 h, wheat leaf segments, assessed four days after inoculation, read-out: control of fungal infection, Erysiphe graminis f.sp. tritici
Method in brief: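 Preventive protocol: compound at 200 ppm in water (from DMSO) sprayed onto wheat leaf segments on agar, dried 12–24 h, then spore-inoculated. Fungicidal activity was assessed four days post-inoculation.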

[2] = test system: Puccinia recondita f.sp. tritici; assay: Leaf disk assay, Puccinia recondita f.sp. tritici (wheat brown rust), preventive; assay type: in vivo; settings: foliar, 216 h, wheat leaf segments, assessed nine days after inoculation, read-out: control of fungal infection, Puccinia recondita f.sp. tritici
Septoria tritici = assay: Growth inhibition in nutrient broth, Septoria tritici (leaf blotch), photometric; assay type: cell-based; settings: Zymoseptoria tritici, PDB broth, 24 C, 72 hrs, read-out: control of fungal infection, Septoria tritici
Fusarium culmorum = assay: Growth inhibition in nutrient broth, Fusarium culmorum (root rot), photometric; assay type: cell-based; settings: 48 h, read-out: control of fungal infection, Fusarium culmorum
Experimental: The compounds were tested in a leaf disk assay, with methods described below. The test compounds were dissolved in DMSO and diluted into water to 200 ppm. In the case of the test on Pythium ultimum, they were dissolved in DMSO and diluted into water to 20 ppm.
Fusarium culmorum (root rot): Conidia of the fungus from cryogenic storage were directly mixed into nutrient broth (PDB potato dextrose broth). After placing a (DMSO) solution of the test compounds into a microtiter plate (96-well format) the nutrient broth containing the fungal spores was added. The test plates were incubated at 24 C and the inhibition of growth was determined photometrically after 48 hrs.

Pythium ultimum = assay: Growth inhibition in potato dextrose broth, Pythium ultimum (damping off), photometric; assay type: cell-based; settings: Globisporangium ultimum, 24° C., 48 hours, read-out: control of fungal infection, Pythium ultimum
Method in brief: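 Growth inhibition was read photometrically at 48 hours after incubation at 24° C. Test compound was diluted from DMSO to 20 ppm in water and combined with potato dextrose broth seeded with Pythium ultimum mycelial fragments.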

Septoria nodorum = assay: Leaf disk assay, Septoria nodorum (wheat glume blotch), preventive; assay type: in vivo; settings: Parastagonospora nodorum, foliar, 96 h, wheat leaf segments, assessed four days after inoculation, read-out: control of fungal infection, Septoria nodorum

C#Cc1cnc2ccc(OC(SC)C(=O)NC(C)(C)C=O)cc2c1 (centres unmarked) [Example 61]
≥ 60%: pest or weed control at 200 ppm (Phytophthora infestans) | pest or weed control at 200 ppm (Plasmopara viticola) | pest or weed control at 200 ppm [1] | pest or weed control at 200 ppm [2] | inhibition of growth at 60 ppm (Septoria tritici) | inhibition of growth at 60 ppm (Fusarium culmorum) | inhibition of growth at 20 ppm (Pythium ultimum)

C#Cc1cnc2ccc(OC(OC)C(=O)NC(C)(C)C)cc2c1 (centres unmarked) [Example 87]
≥ 60%: pest or weed control at 200 ppm (Phytophthora infestans) | pest or weed control at 200 ppm (Plasmopara viticola) | pest or weed control at 200 ppm [1] | pest or weed control at 200 ppm [2] | pest or weed control at 200 ppm (Septoria nodorum) | inhibition of growth at 60 ppm (Septoria tritici) | inhibition of growth at 60 ppm (Fusarium culmorum)

C#Cc1cnc2ccc(OC(SC)C(=O)NCC)cc2c1 (centres unmarked) [Example 97]
≥ 60%: pest or weed control at 200 ppm (Phytophthora infestans) | pest or weed control at 200 ppm (Plasmopara viticola) | pest or weed control at 200 ppm [1] | pest or weed control at 200 ppm [2] | pest or weed control at 200 ppm (Septoria nodorum) | inhibition of growth at 60 ppm (Septoria tritici) | inhibition of growth at 60 ppm (Fusarium culmorum) | inhibition of growth at 20 ppm (Pythium ultimum)

C#Cc1cnc2ccc(OC(SC)C(=O)NC(C)C)cc2c1 (centres unmarked) [Example 98]
≥ 60%: pest or weed control at 200 ppm (Phytophthora infestans) | pest or weed control at 200 ppm (Plasmopara viticola) | pest or weed control at 200 ppm [1] | pest or weed control at 200 ppm [2] | pest or weed control at 200 ppm (Septoria nodorum) | inhibition of growth at 60 ppm (Septoria tritici) | inhibition of growth at 60 ppm (Fusarium culmorum) | inhibition of growth at 20 ppm (Pythium ultimum)

C#Cc1cnc2cc(F)c(OC(SC)C(=O)NC(C)(C)C#CC)cc2c1 (centres unmarked) [Example 107]
≥ 60%: pest or weed control at 200 ppm (Phytophthora infestans) | pest or weed control at 200 ppm (Plasmopara viticola) | pest or weed control at 200 ppm [1] | pest or weed control at 200 ppm [2] | pest or weed control at 200 ppm (Septoria nodorum) | inhibition of growth at 60 ppm (Septoria tritici) | inhibition of growth at 60 ppm (Fusarium culmorum)

C#CCOCC(C)(C)NC(=O)C(OC)Oc1ccc2ncc(C#C)cc2c1 (centres unmarked) [Example 127]
≥ 60%: pest or weed control at 200 ppm (Phytophthora infestans) | pest or weed control at 200 ppm (Plasmopara viticola) | pest or weed control at 200 ppm [1] | pest or weed control at 200 ppm [2] | pest or weed control at 200 ppm (Septoria nodorum) | inhibition of growth at 60 ppm (Septoria tritici) | inhibition of growth at 60 ppm (Fusarium culmorum) | inhibition of growth at 20 ppm (Pythium ultimum)

CSC(Oc1ccc2ncc(C#CCCl)cc2c1)C(=O)NC(C)(C)C (centres unmarked) [Example 143]
≥ 60%: pest or weed control at 200 ppm [2] | pest or weed control at 200 ppm (Septoria nodorum) | inhibition of growth at 60 ppm (Septoria tritici) | inhibition of growth at 60 ppm (Fusarium culmorum) | inhibition of growth at 20 ppm (Pythium ultimum)

C#Cc1cnc2ccc(OC(SC)C(=O)NC(C)(C#C)C#C)cc2c1 (centres unmarked) [Example 159]
≥ 60%: pest or weed control at 200 ppm (Phytophthora infestans) | pest or weed control at 200 ppm (Plasmopara viticola) | pest or weed control at 200 ppm [1] | pest or weed control at 200 ppm [2] | pest or weed control at 200 ppm (Septoria nodorum) | inhibition of growth at 60 ppm (Septoria tritici) | inhibition of growth at 60 ppm (Fusarium culmorum) | inhibition of growth at 20 ppm (Pythium ultimum)

C#Cc1cnc2cc(F)c(OC(SC)C(=O)NC(C)C)cc2c1 (centres unmarked) [Example 181]
≥ 60%: pest or weed control at 200 ppm (Phytophthora infestans) | pest or weed control at 200 ppm (Plasmopara viticola) | pest or weed control at 200 ppm [1] | pest or weed control at 200 ppm [2] | pest or weed control at 200 ppm (Septoria nodorum) | inhibition of growth at 60 ppm (Septoria tritici) | inhibition of growth at 60 ppm (Fusarium culmorum) | inhibition of growth at 20 ppm (Pythium ultimum)

C#CCC(C)(C)NC(=O)C(Oc1cc2cc(C#C)cnc2cc1F)SC (centres unmarked) [Example 187]
≥ 60%: pest or weed control at 200 ppm (Phytophthora infestans) | pest or weed control at 200 ppm (Plasmopara viticola) | pest or weed control at 200 ppm [1] | pest or weed control at 200 ppm [2] | pest or weed control at 200 ppm (Septoria nodorum) | inhibition of growth at 60 ppm (Septoria tritici) | inhibition of growth at 60 ppm (Fusarium culmorum) | inhibition of growth at 20 ppm (Pythium ultimum)

C#Cc1cnc2cc(F)c(OC(SC)C(=O)NC(C)(C#C)CC)cc2c1 (centres unmarked) [Example 188]
≥ 60%: pest or weed control at 200 ppm (Phytophthora infestans) | pest or weed control at 200 ppm (Plasmopara viticola) | pest or weed control at 200 ppm [1] | pest or weed control at 200 ppm [2] | pest or weed control at 200 ppm (Septoria nodorum) | inhibition of growth at 60 ppm (Septoria tritici) | inhibition of growth at 60 ppm (Fusarium culmorum) | inhibition of growth at 20 ppm (Pythium ultimum)

C#Cc1cnc2cc(F)c(OC(SC)C(=O)NC(C)(C)C#CCCOC)cc2c1 (centres unmarked) [Example 189]
≥ 60%: pest or weed control at 200 ppm (Phytophthora infestans) | pest or weed control at 200 ppm (Plasmopara viticola) | pest or weed control at 200 ppm [1] | pest or weed control at 200 ppm [2] | pest or weed control at 200 ppm (Septoria nodorum) | inhibition of growth at 60 ppm (Septoria tritici) | inhibition of growth at 60 ppm (Fusarium culmorum) | inhibition of growth at 20 ppm (Pythium ultimum)

C#Cc1cnc2cc(F)c(OC(SC)C(=O)NC(C)(C)C#CCOCC)cc2c1 (centres unmarked) [Example 191]
≥ 60%: pest or weed control at 200 ppm (Phytophthora infestans) | pest or weed control at 200 ppm (Plasmopara viticola) | pest or weed control at 200 ppm [1] | pest or weed control at 200 ppm [2] | pest or weed control at 200 ppm (Septoria nodorum) | inhibition of growth at 60 ppm (Septoria tritici) | inhibition of growth at 60 ppm (Fusarium culmorum) | inhibition of growth at 20 ppm (Pythium ultimum)

C#CCOCC#CC(C)(C)NC(=O)C(Oc1cc2cc(C#C)cnc2cc1F)SC (centres unmarked) [Example 198]
≥ 60%: pest or weed control at 200 ppm (Phytophthora infestans) | pest or weed control at 200 ppm (Plasmopara viticola) | pest or weed control at 200 ppm [1] | pest or weed control at 200 ppm [2] | pest or weed control at 200 ppm (Septoria nodorum) | inhibition of growth at 60 ppm (Septoria tritici) | inhibition of growth at 60 ppm (Fusarium culmorum) | inhibition of growth at 20 ppm (Pythium ultimum)

C#Cc1cnc2cc(F)c(OC(SC)C(=O)NC(C)(C)C#CCOCC=C)cc2c1 (centres unmarked) [Example 199]
≥ 60%: pest or weed control at 200 ppm (Phytophthora infestans) | pest or weed control at 200 ppm (Plasmopara viticola) | pest or weed control at 200 ppm [1] | pest or weed control at 200 ppm [2] | pest or weed control at 200 ppm (Septoria nodorum) | inhibition of growth at 60 ppm (Septoria tritici) | inhibition of growth at 60 ppm (Fusarium culmorum) | inhibition of growth at 20 ppm (Pythium ultimum)

C#Cc1cnc2cc(F)c(OC(SC)C(=O)NC(C)(C)COCC)cc2c1 (centres unmarked) [Example 200]
≥ 60%: pest or weed control at 200 ppm (Phytophthora infestans) | pest or weed control at 200 ppm (Plasmopara viticola) | pest or weed control at 200 ppm [1] | pest or weed control at 200 ppm [2] | pest or weed control at 200 ppm (Septoria nodorum) | inhibition of growth at 60 ppm (Septoria tritici) | inhibition of growth at 60 ppm (Fusarium culmorum) | inhibition of growth at 20 ppm (Pythium ultimum)

C#Cc1cnc2ccc(OC(SC)C(=O)NC(C)(C#CC)CC)cc2c1 (centres unmarked) [Example 204]
≥ 60%: pest or weed control at 200 ppm (Phytophthora infestans) | pest or weed control at 200 ppm (Plasmopara viticola) | pest or weed control at 200 ppm [1] | pest or weed control at 200 ppm [2] | pest or weed control at 200 ppm (Septoria nodorum) | inhibition of growth at 60 ppm (Septoria tritici) | inhibition of growth at 60 ppm (Fusarium culmorum) | inhibition of growth at 20 ppm (Pythium ultimum)

C#Cc1cnc2ccc(OC(SC)C(=O)NC3(C#C)CCCCC3)cc2c1 (centres unmarked) [Example 206]
≥ 60%: pest or weed control at 200 ppm (Phytophthora infestans) | pest or weed control at 200 ppm (Plasmopara viticola) | pest or weed control at 200 ppm [1] | pest or weed control at 200 ppm [2] | pest or weed control at 200 ppm (Septoria nodorum) | inhibition of growth at 60 ppm (Septoria tritici) | inhibition of growth at 60 ppm (Fusarium culmorum) | inhibition of growth at 20 ppm (Pythium ultimum)

C#CCNC(=O)C(Oc1ccc2ncc(C#C)cc2c1)SC (centres unmarked) [Example 208]
≥ 60%: pest or weed control at 200 ppm (Phytophthora infestans) | pest or weed control at 200 ppm (Plasmopara viticola) | pest or weed control at 200 ppm [1] | pest or weed control at 200 ppm [2] | pest or weed control at 200 ppm (Septoria nodorum) | inhibition of growth at 60 ppm (Septoria tritici) | inhibition of growth at 60 ppm (Fusarium culmorum) | inhibition of growth at 20 ppm (Pythium ultimum)

C#Cc1cnc2cc(F)c(OC(SC)C(=O)NC(C)(C=O)COC)cc2c1 (centres unmarked) [Example 210]
≥ 60%: pest or weed control at 200 ppm (Plasmopara viticola) | pest or weed control at 200 ppm [1] | pest or weed control at 200 ppm [2] | pest or weed control at 200 ppm (Septoria nodorum) | inhibition of growth at 60 ppm (Septoria tritici) | inhibition of growth at 60 ppm (Fusarium culmorum) | inhibition of growth at 20 ppm (Pythium ultimum)

C#Cc1cnc2ccc(OC(SC)C(=O)NC3CC3)cc2c1 (centres unmarked) [Example 212]
≥ 60%: pest or weed control at 200 ppm (Phytophthora infestans) | pest or weed control at 200 ppm (Plasmopara viticola) | pest or weed control at 200 ppm [1] | pest or weed control at 200 ppm [2] | pest or weed control at 200 ppm (Septoria nodorum) | inhibition of growth at 60 ppm (Septoria tritici) | inhibition of growth at 60 ppm (Fusarium culmorum) | inhibition of growth at 20 ppm (Pythium ultimum)

C#Cc1cnc2ccc(OC(SC)C(=O)NC3CCC3)cc2c1 (centres unmarked) [Example 213]
≥ 60%: pest or weed control at 200 ppm (Phytophthora infestans) | pest or weed control at 200 ppm (Plasmopara viticola) | pest or weed control at 200 ppm [1] | pest or weed control at 200 ppm [2] | pest or weed control at 200 ppm (Septoria nodorum) | inhibition of growth at 60 ppm (Septoria tritici) | inhibition of growth at 60 ppm (Fusarium culmorum) | inhibition of growth at 20 ppm (Pythium ultimum)

C#Cc1cnc2ccc(OC(SC)C(=O)NC3CCCC3)cc2c1 (centres unmarked) [Example 214]
≥ 60%: pest or weed control at 200 ppm (Phytophthora infestans) | pest or weed control at 200 ppm (Plasmopara viticola) | pest or weed control at 200 ppm [1] | pest or weed control at 200 ppm [2] | pest or weed control at 200 ppm (Septoria nodorum) | inhibition of growth at 60 ppm (Septoria tritici) | inhibition of growth at 60 ppm (Fusarium culmorum) | inhibition of growth at 20 ppm (Pythium ultimum)

C#Cc1cnc2c(F)cc(OC(SC)C(=O)NC(C)(C)C#CCOC)cc2c1 (centres unmarked) [Example 218]
≥ 60%: pest or weed control at 200 ppm (Phytophthora infestans) | pest or weed control at 200 ppm (Plasmopara viticola) | pest or weed control at 200 ppm [1] | pest or weed control at 200 ppm [2] | pest or weed control at 200 ppm (Septoria nodorum) | inhibition of growth at 60 ppm (Septoria tritici) | inhibition of growth at 60 ppm (Fusarium culmorum) | inhibition of growth at 20 ppm (Pythium ultimum)
